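Exposure lasted 48 hours, with cells grown in 96-well plates and compounds tested at five concentrations. GI50 marks 50% less growth. TGI denotes the concentration required for complete inhibition of growth.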
Assays:
Assay in all cases: NCI-60 cell line screen, 48 h
T-47D breast = system: T-47D breast
SF-268 CNS = system: SF-268 CNS
RPMI-8226 leukemia = system: RPMI-8226 leukemia
PC-3 prostate = system: PC-3 prostate
OVCAR-8 ovarian = system: OVCAR-8 ovarian
HCT-15 colon = system: HCT-15 colon
HOP-62 NSCLC = system: HOP-62 NSCLC
UACC-62 melanoma = system: UACC-62 melanoma
SF-539 CNS = system: SF-539 CNS
SF-295 CNS = system: SF-295 CNS
SK-OV-3 ovarian = system: SK-OV-3 ovarian
EKVX NSCLC = system: EKVX NSCLC
MCF7 breast = system: MCF7 breast
SK-MEL-2 melanoma = system: SK-MEL-2 melanoma
BT-549 breast = system: BT-549 breast
U251 CNS = system: U251 CNS
A498 renal = system: A498 renal
CAKI-1 renal = system: CAKI-1 renal
IGROV1 ovarian = system: IGROV1 ovarian
HL-60(TB) leukemia = system: HL-60(TB) leukemia
TK-10 renal = system: TK-10 renal
KM12 colon = system: KM12 colon
HCT-116 colon = system: HCT-116 colon
HOP-92 NSCLC = system: HOP-92 NSCLC
A549 NSCLC = system: A549 NSCLC
M14 melanoma = system: M14 melanoma
NCI-H23 lung = system: NCI-H23 lung
MDA-MB-435 = system: MDA-MB-435
K-562 leukemia = system: K-562 leukemia
NCI-H226 lung = system: NCI-H226 lung
SR leukemia = system: SR leukemia
NCI/ADR-RES ovarian = system: NCI/ADR-RES ovarian
SW-620 colon = system: SW-620 colon
SNB-75 CNS = system: SNB-75 CNS
HCC-2998 colon = system: HCC-2998 colon
MDA-MB-231 breast = system: MDA-MB-231 breast
SN12C renal = system: SN12C renal
786-0 renal = system: 786-0 renal
SK-MEL-28 melanoma = system: SK-MEL-28 melanoma
OVCAR-5 ovarian = system: OVCAR-5 ovarian
HS 578T breast = system: HS 578T breast
NCI-H460 lung = system: NCI-H460 lung
HT29 colon = system: HT29 colon
DU-145 prostate = system: DU-145 prostate
COLO 205 colon = system: COLO 205 colon
RXF 393 renal = system: RXF 393 renal
LOX IMVI melanoma = system: LOX IMVI melanoma
MOLT-4 leukemia = system: MOLT-4 leukemia
UO-31 renal = system: UO-31 renal
UACC-257 melanoma = system: UACC-257 melanoma
MALME-3M melanoma = system: MALME-3M melanoma
SNB-19 CNS = system: SNB-19 CNS
OVCAR-3 ovarian = system: OVCAR-3 ovarian
CCRF-CEM leukemia = system: CCRF-CEM leukemia
NCI-H522 lung = system: NCI-H522 lung
OVCAR-4 ovarian = system: OVCAR-4 ovarian
ACHN renal = system: ACHN renal
SK-MEL-5 melanoma = system: SK-MEL-5 melanoma

## COc1ccc2[nH]c(O)c(/C=c3/ccc4c(c3)N=C(c3ccc(F)cc3)N=4)c2c1
T-47D breast
  GI50: 2010 nM
  TGI: 4990 nM
SF-268 CNS
  GI50: 3760 nM
  TGI: 22700 nM
RPMI-8226 leukemia
  GI50: 3010 nM
  TGI: > 100000 nM
PC-3 prostate
  GI50: 4640 nM
  TGI: 88600 nM
OVCAR-8 ovarian
  GI50: 2070 nM
  TGI: 5320 nM
HCT-15 colon
  GI50: 5830 nM
  TGI: > 100000 nM
HOP-62 NSCLC
  GI50: 1930 nM
  TGI: 3910 nM
UACC-62 melanoma
  GI50: 6110 nM
  TGI: > 100000 nM
SF-539 CNS
  GI50: 3830 nM
  TGI: 23700 nM
SF-295 CNS
  GI50: 7330 nM
  TGI: > 100000 nM
SK-OV-3 ovarian
  GI50: 2620 nM
  TGI: 6060 nM
EKVX NSCLC
  GI50: 14000 nM
  TGI: > 100000 nM
MCF7 breast
  GI50: 4530 nM
  TGI: 93300 nM
SK-MEL-2 melanoma
  GI50: 5720 nM
  TGI: 44800 nM
BT-549 breast
  GI50: 1750 nM
  TGI: 4750 nM
U251 CNS
  GI50: 3650 nM
  TGI: 30800 nM
A498 renal
  GI50: 1460 nM
  TGI: 4280 nM
CAKI-1 renal
  GI50: 7120 nM
  TGI: > 100000 nM
IGROV1 ovarian
  GI50: 3270 nM
  TGI: 17900 nM
HL-60(TB) leukemia
  GI50: 28300 nM
  TGI: > 100000 nM
TK-10 renal
  GI50: 3010 nM
  TGI: 7120 nM
KM12 colon
  GI50: 4540 nM
  TGI: 77900 nM
HCT-116 colon
  GI50: 1630 nM
  TGI: 3370 nM
HOP-92 NSCLC
  GI50: 2060 nM
  TGI: 8750 nM
A549 NSCLC
  GI50: 3110 nM
  TGI: > 100000 nM
M14 melanoma
  GI50: 2660 nM
  TGI: 11100 nM
NCI-H23 lung
  GI50: 3140 nM
  TGI: 28100 nM
MDA-MB-435
  GI50: 3200 nM
  TGI: 40000 nM
K-562 leukemia
  GI50: 9140 nM
  TGI: > 100000 nM
NCI-H226 lung
  GI50: 2500 nM
  TGI: 6330 nM
SR leukemia
  GI50: 4950 nM
  TGI: > 100000 nM
NCI/ADR-RES ovarian
  GI50: 3780 nM
  TGI: 24400 nM
SW-620 colon
  GI50: 4340 nM
  TGI: > 100000 nM
SNB-75 CNS
  GI50: 1550 nM
  TGI: 3600 nM
HCC-2998 colon
  GI50: > 100000 nM
  TGI: > 100000 nM
MDA-MB-231 breast
  GI50: 2250 nM
  TGI: 6040 nM
SN12C renal
  GI50: 4880 nM
  TGI: > 100000 nM
786-0 renal
  GI50: 1690 nM
  TGI: 3260 nM
SK-MEL-28 melanoma
  GI50: 4340 nM
  TGI: 28800 nM
OVCAR-5 ovarian
  GI50: 7100 nM
  TGI: 97900 nM
HS 578T breast
  GI50: 2730 nM
  TGI: 9400 nM
NCI-H460 lung
  GI50: 3350 nM
  TGI: 12300 nM
HT29 colon
  GI50: 3620 nM
  TGI: 16800 nM
DU-145 prostate
  GI50: 2230 nM
  TGI: 6870 nM
COLO 205 colon
  GI50: 5130 nM
  TGI: > 100000 nM
RXF 393 renal
  GI50: 1950 nM
  TGI: 4060 nM
LOX IMVI melanoma
  GI50: 2920 nM
  TGI: > 100000 nM
MOLT-4 leukemia
  GI50: 13900 nM
  TGI: > 100000 nM
UO-31 renal
  GI50: 1950 nM
  TGI: 5010 nM
UACC-257 melanoma
  GI50: 3920 nM
  TGI: 15300 nM
MALME-3M melanoma
  GI50: 2580 nM
  TGI: 6320 nM
SNB-19 CNS
  GI50: 9470 nM
  TGI: > 100000 nM
OVCAR-3 ovarian
  GI50: 3250 nM
  TGI: 11400 nM
CCRF-CEM leukemia
  GI50: 4140 nM
  TGI: > 100000 nM
NCI-H522 lung
  GI50: 2790 nM
  TGI: 8090 nM

## COC(=O)[C@@H](OC)[C@@H]1Cc2cc3cc(OC4CC(OC5CC(O)C(O)C(C)O5)C(O)C(C)O4)c(C)c(O)c3c(O)c2C(=O)[C@H]1OC1CC(OC2CC(OC3CC(C)(O)C(O)C(C)O3)C(O)C(C)O2)C(O)C(C)O1 (stereo partly drawn)
T-47D breast
  GI50: 42.1 nM
  TGI: > 16500 nM
SF-268 CNS
  GI50: 45.5 nM
  TGI: > 7490 nM
RPMI-8226 leukemia
  GI50: 32.9 nM
  TGI: 112 nM
PC-3 prostate
  GI50: 42.9 nM
  TGI: 188 nM
OVCAR-8 ovarian
  GI50: 39.3 nM
  TGI: > 16500 nM
HCT-15 colon
  GI50: 57.5 nM
  TGI: > 16500 nM
HOP-62 NSCLC
  GI50: 31.2 nM
  TGI: 1800 nM
UACC-62 melanoma
  GI50: 19.4 nM
  TGI: 46.9 nM
SF-539 CNS
  GI50: 25 nM
  TGI: 82 nM
SF-295 CNS
  GI50: 35.7 nM
  TGI: > 5450 nM
SK-OV-3 ovarian
  GI50: 81.1 nM
  TGI: > 16500 nM
OVCAR-4 ovarian
  GI50: 41.3 nM
  TGI: 553 nM
EKVX NSCLC
  GI50: 45.7 nM
  TGI: 1220 nM
MCF7 breast
  GI50: 27.5 nM
  TGI: > 16500 nM
SK-MEL-2 melanoma
  GI50: 35.5 nM
  TGI: 77.7 nM
BT-549 breast
  GI50: 18.6 nM
  TGI: 97.4 nM
U251 CNS
  GI50: 38.5 nM
  TGI: > 16500 nM
A498 renal
  GI50: 27.7 nM
  TGI: 71.7 nM
CAKI-1 renal
  GI50: 42.5 nM
IGROV1 ovarian
  GI50: 29.9 nM
  TGI: > 16500 nM
HL-60(TB) leukemia
  GI50: 40.5 nM
  TGI: 740 nM
TK-10 renal
  GI50: 43.8 nM
  TGI: > 16500 nM
KM12 colon
  GI50: 40.4 nM
  TGI: 3720 nM
HCT-116 colon
  GI50: 24.6 nM
  TGI: > 16500 nM
HOP-92 NSCLC
  GI50: 36.5 nM
  TGI: 119 nM
A549 NSCLC
  GI50: 48.4 nM
  TGI: > 16500 nM
M14 melanoma
  GI50: 38.2 nM
  TGI: 157 nM
NCI-H23 lung
  GI50: 34.5 nM
MDA-MB-435
  GI50: 27.4 nM
  TGI: 60.5 nM
K-562 leukemia
  GI50: 40.7 nM
  TGI: > 16500 nM
NCI-H226 lung
  GI50: 38.4 nM
  TGI: 125 nM
SR leukemia
  GI50: 10.3 nM
  TGI: > 16500 nM
NCI/ADR-RES ovarian
  GI50: 688 nM
  TGI: > 16500 nM
SW-620 colon
  GI50: 40 nM
  TGI: > 16500 nM
SNB-75 CNS
  GI50: 21.2 nM
  TGI: 48.7 nM
HCC-2998 colon
  GI50: 36.5 nM
  TGI: 252 nM
MDA-MB-231 breast
  GI50: 47.9 nM
  TGI: 148 nM
SN12C renal
  GI50: 38.9 nM
  TGI: > 16500 nM
786-0 renal
  GI50: 30.2 nM
  TGI: > 16500 nM
SK-MEL-28 melanoma
  GI50: 31.2 nM
  TGI: 106 nM
OVCAR-5 ovarian
  GI50: 52.4 nM
  TGI: > 16500 nM
HS 578T breast
  GI50: 39.9 nM
  TGI: 223 nM
NCI-H460 lung
  GI50: 42.9 nM
  TGI: > 16500 nM
HT29 colon
  GI50: 39 nM
DU-145 prostate
  GI50: 43.3 nM
  TGI: > 16500 nM
ACHN renal
  GI50: 31.3 nM
  TGI: > 16500 nM
RXF 393 renal
  GI50: 26.3 nM
  TGI: 62.3 nM
LOX IMVI melanoma
  GI50: 26 nM
  TGI: > 5380 nM
MOLT-4 leukemia
  GI50: 45.3 nM
UO-31 renal
  GI50: 33.5 nM
  TGI: 120 nM
UACC-257 melanoma
  GI50: 50.7 nM
  TGI: 497 nM
MALME-3M melanoma
  GI50: 34 nM
  TGI: 83.9 nM
SNB-19 CNS
  GI50: 44.9 nM
  TGI: > 8890 nM
CCRF-CEM leukemia
  GI50: 35 nM
  TGI: > 7400 nM
SK-MEL-5 melanoma
  GI50: 32.7 nM
  TGI: 89.2 nM
NCI-H522 lung
  GI50: 35.8 nM
  TGI: 172 nM
